According to PMC3252375 (PLoS Pathogens, 2012):
Read-outs that look alike come from different tables or passages of the source.

Assays:
[1] = system: LncP (Legionella nucleotide carrier Protein)
[2] = system: LncP (Legionella nucleotide carrier Protein); format: biochemical, Legionella pneumophila

Row | Compound | Km [1] [µM] | Km [2] [µM]
1 | Nc1ncnc2c1ncn2[C@@H]1O[C@H](COP(=O)(O)OP(=O)(O)OP(=O)(O)O)[C@@H](O)[C@H]1O [ATP] | 190 ± 37 | –
2 | Nc1nc2c(ncn2[C@@H]2O[C@H](COP(=O)(O)OP(=O)(O)OP(=O)(O)O)[C@@H](O)[C@H]2O)c(=O)[nH]1 [GTP] | – | 183 ± 32
